The conditions of test [1]: cited from earlier work; for translation efficiency: relative to the compound without modification.
The test system of another test is 3T3-L1 and JAWS II cells. In words: Gaussia luciferase protein expression from capped mRNA transfected into mammalian cells. As to conditions: mRNAs modified with the two trinucleotide cap analogs compared with each other. The format is cell-based, murine. The method, then:
Transcripts incorporating at the 5′ end compounds according to the invention or benchmark (reference) compounds were obtained using in vitro transcription method in the presence of RNA polymerase T7 and DNA template containing the […] promoter sequence for this polymerase. In order to analyze the capping efficiency, short RNA transcripts were obtained as described in Example 9. The transcription yielding RNAs of 35 nt in length was carried out in the presence of selected compounds according to the invention or reference compounds representing state of the art and containing the same modifications of phosphate groups as the analyzed compounds according to the invention. The resulting RNAs were treated with DNAzyme 10-23 in order to shorten them and reduce 3′ end heterogeneity and analyzed in 15% polyacrylamide gel, which enabled separation of capped and uncapped RNAs. In order to analyze protein expression yield in mammalian cells, mRNAs carrying compounds according to the invention or reference compounds and encoding Gaussia luciferase as a reporter gene were obtained. […] The obtained mRNAs were introduced into mammalian cell lines (fibroblasts—3T3-L1 and dendritic cells—JAWS II) using transfection with lipofectamine, followed by measuring Gaussia luciferase expression in the extracellular medium at appropriate time intervals by the luminescence method as described in Example 13. […]

Turning to `CO[C@@H]1[C@H](O)[C@@H](COP(=O)(O)OP(=O)([S-])OP(=O)(O)OC[C@H]2O[C@@H](n3cnc4c(=O)[nH]c(N)nc43)[C@H](O)[C@@H]2O)O[C@H]1n1c[n+](C)c2c(O)nc(N)nc21` (stereo partly drawn) [β-S-ARCA], in test [1] (in vitro and in vivo), the “translation efficiency of mRNA” value is “significant increase in translation efficiency”.
Take m^7GppCH2pAmpG: the translational properties entry in the test with 3T3-L1 and JAWS II cells is “very similar translational properties”.
For `COC1C(O)C(COP(=O)(O)OP(=O)(S)OP(=O)(O)OCC2OC(n3cnc4c(=O)[nH]c(N)nc43)C(O)C2O)OC1n1c[n+](C)c2c(=O)[nH]c(N)nc21` (centres unmarked) [m2^7,2′-OGppspG D2], the translation efficiency result in test [1] is “increases”.
With m2^7,3′-OGppCH2pG, in test [1] (compared to mRNA obtained with m2^7,3′-OGpppG (no O by CH2 substitution)), the protein expression entry is on record as “significant reduction in protein expression”. In addition, the translation efficiency entry in test [1] is recorded as “decreases”.

These data come from patent US20230295215A1, “NOVEL MRNA 5'-END CAP ANALOGS MODIFIED WITHIN PHOSPHATE RESIDUES, RNA MOLECULE INCORPORATING THE SAME, USES THEREOF AND METHOD OF SYNTHESIZING RNA MOLECULE OR PEPTIDE” (Uniwersytet Warszawski, priority 2020, published 2023).
